Assay results reported in US20260217743A1, “ETHER OF PHOSPHATIDYLCHOLINE AND PHOSPHATIDYLETHANOLAMINE, THEIR LYSO-FORMS AND MIXTURE THEREOF FOR USE IN THE TREATMENT OF A DISEASE OR DISORDER CAUSED BY A DEFICIENCY IN PLASMALOGENS” (Baker Heart and Diabetes Institute, priority 2023, published 2026).

Key:
[1] = tested on: RAW 264.7 cells; test: LPC(O)/LPE(O) supplementation with different SN1 compositions in RAW 264.7 cells, PE(P) level and composition; type: cell-based, mouse; conditions: 20 μM, 24 hours
Description: A mouse macrophage cell line, RAW 264.7 was used for this study. The cells were cultured at 37° C. with 5% CO2 in Roswell Park Memorial Institute (RPMI) 1640 medium containing L-glutamine with 1% sodium pyruvate (Gibco, USA) and 10% fetal bovine serum (Gibco, USA). The cells were passaged every week and the media replenished every two to three days until passage 30, at which point these cells were discarded. The cells were seeded in a 12-well plate at a concentration of 300,000 cells/ml of media and allowed to grow until they reached 80% confluency.
To assess the incorporation of plasmalogen precursors into cellular plasmalogens, cells were supplemented with compounds with different SN1 compositions, i.e., varying proportions of O-16:0, O-18:0, and O-18:1 of LPC(O) or LPE(O) at a concentration of 20 μM (Table 14). The plasmalogen precursors, LPC(O), and LPE(O), were dissolved in chloroform:methanol (2:1), evaporated under a stream of nitrogen gas at 40° C., and then reconstituted in RPMI medium with 2% bovine serum albumin (Sigma-Aldrich, USA). The control treatment for the cells consisted of RPMI with 2% bovine serum albumin. Once prepared, the media containing the precursors were vortexed and sonicated in an ultrasonic water bath (Soniclean, Adelaide, SA, Australia) for 15 minutes.
Lipids were extracted from cells using the butanol-methanol method, following established protocols. […] These vials were then frozen at −80° C. until they were ready for mass spectrometry analysis.
A targeted lipidomic approach using LC-MS/MS, following a previously published protocol (Huynh, et al., “High-Throughput Plasma Lipidomics: Detailed Mapping of the Associations with Cardiometabolic Risk Factors,” Cell Chem. Biol., 2019 Jan. 17; 26(1):71-84.e4, doi: 10.1016/j.chembiol.2018.10.008), was utilised for the samples from this study. […] Multiple lipid species belonging to different lipid classes including phosphatidylcholine (PC), alkylphosphatidylcholine [PC(O)], alkenylphosphatidylcholine [PC(P)], phosphatidylethanolamine (PE), alkylphosphatidylethanolamine [PE(O)], alkenylphosphatidylethanolamine [PE(P)] or PE plasmalogen, lysophosphatidylcholine (LPC), lysoalkylphosphatidylcholine [LPC(O)], lysoalkenylphosphatidylcholine [LPC(P)], lysophosphatidylethanolamine (LPE), lysoalkylphosphatidylethanolamine [LPE(O)], lysoalkenylphosphatidylethanolamine [LPE(P)], triacylglycerol (TG) and alkyldiacylglycerol [TG(O)] were measured. The lipid species measured in this study are listed in Supplementary Table 1, which is included at the end of this Example. […]
For data processing, vendor software Qualitative Analysis B.07.00 and QQQ Quantitative Analysis B.10.0.0 were utilized. Relative quantification of lipid species was determined by comparing them to the corresponding internal standards. […]

[2] = tested on: 3T3-L1 cells; test: LPC(O)/LPE(O) supplementation with different SN1 compositions in 3T3-L1 cells, PE(P) level and composition; type: cell-based, mouse; conditions: 20 μM, 24 hours
Text: The method employed in this study was the same as described in example 5, with the exception of the cell line and culture medium used. For this study, a mouse fibroblast/pre-adipocyte cell line, 3T3-L1, was utilised and cultured in Dulbecco's Modified Eagle Medium (DMEM) (Gibco, USA), supplemented with 1% sodium pyruvate (Gibco, USA) and 10% newborn calf serum (Gibco, New Zealand).

Structure (SMILES): CCCCCCCC/C=C\CCCCCCCCOC[C@@H](O)COP(=O)(O)OCCN [LPE(O-18:1) 100%]
- efficacy in elevating the endogenous PE(P) level [1]: comparatively less effective
- cellular PE(P) levels [2]: appeared to reduce these levels

Structure (SMILES): CCCCCCCCCCCCCCCCOC[C@@H](O)COP(=O)([O-])OCC[N+](C)(C)C [LPC(O-16:0) 100%]
- efficacy in elevating the endogenous PE(P) level [1]: greater efficacy

Structure (SMILES): CCCCCCCCCCCCCCCCCCOC[C@@H](O)COP(=O)(O)OCCN [LPE(O-18:0) 100%]
- efficacy in elevating the endogenous PE(P) level [1]: equal effectiveness

Structure (SMILES): CCCCCCCCCCCCCCCCOC[C@@H](O)COP(=O)(O)OCCN [LPE(O-16:0) 100%]
- efficacy in elevating the endogenous PE(P) level [1]: equal effectiveness
